A melting point compilation (Tetko et al.; mined from patent text by program, amines drawn as free bases though some values may be those of a salt)

Row | melting point | SMILES
1 | 148 to 149 °C | CCCCOc1c(NCc2ccc(C#N)cc2Cl)c(=O)c1=O
2 | 61 °C | CCCCCCCC(=O)OCc1ccccc1-c1nc(-c2cccc(OC)c2)n[nH]1
3 | 169 to 170 °C | CCCC(=O)NCCCCn1c(C)nc2c(N)nc3ccccc3c21
4 | 53 to 57 °C | COc1cccc(CO)c1F
5 | 183 to 185 °C | O=C(O)C1CCC(=O)N1c1cccc(O)c1 (configuration not stated)
6 | 162 to 163 °C | Cc1csc(-c2ccc3c(=O)n(CC(C)C)c(CN)c(-c4ccccc4)c3c2)n1
7 | 80 to 81 °C | Cc1ccc(-c2nccc(C)n2)cc1
8 | > 360 °C | CCn1c(=O)c2[nH]c(-c3ccc(S(=O)(=O)O)cc3)nc2n(CC)c1=O
9 | 53 to 54 °C | CCSCc1cnn(-c2c(Cl)cc(C(F)(F)F)cc2Cl)n1
10 | 98 to 100 °C | CNC(C)Cn1nc(Cl)c2cc3ccc(OC)cc3nc21 (configuration not stated)
11 | 135 °C | O=C1CCN(C2c3ccccc3-c3ccccc32)CC1
12 | 134 to 135 °C | CCOCc1cc2cc(Br)ccc2oc1=Nc1ccc(OC)cc1
13 | 257 to 259 °C | CCN1C(=O)CC(C)(C)c2ccc(-c3nc4ccccc4[nH]3)cc21
14 | 168 to 170 °C | CSCc1cn(C)c2cc(Br)ccc2c1=O

More lines, now with the values behind:

Row | SMILES | melting point
15 | CCNC(=O)c1cc(N)c(N)cc1OC | 65 to 67 °C
16 | c1ccc(OCCSCc2nnc(-c3ccc(OCCCN4CCCC4)cc3)o2)cc1 | 70 °C
17 | CC(C)(C)N(Cc1ccccc1)CC(O)c1ccc(OCc2ccccc2)c(N)c1 (configuration not stated) | 68 to 69 °C
18 | CC(C)C(NC(=O)OC(C)(C)C)C(=O)OC1CC(n2cc(C=CBr)c(=O)[nH]c2=O)OC1CCl (configuration not stated) | 87 to 88 °C
19 | CC(C)NC(=O)c1cnc(N2CCC(N3C(=O)COc4ccccc43)CC2)c(Cl)c1 | 85 to 88 °C
20 | CC(C)(C)c1ccccc1N1CCN(C(=O)CCC#N)CC1 | 109 to 110 °C
21 | CCCCC(CC)COc1ccc2c(Br)c3cc(OCC(CC)CCCC)ccc3c(Br)c2c1 (configuration not stated) | 103 to 105 °C
22 | CN(Cc1ccncc1)c1ccc([N+](=O)[O-])c2c(C#N)cccc12 | 153 to 156 °C
23 | COc1ccc(C2(c3ccc(N(C)C)cc3)OC(=O)c3cc(N(C)C)ccc32)cc1 (configuration not stated) | 156 to 161 °C
24 | Cc1ccc(S(=O)(=O)Nc2ccc(C3SC(=O)NC3=O)cc2)cc1 (configuration not stated) | 215 to 218 °C
25 | CCCCNc1nnc(NCCCC)c2cc3c(OC)cccc3cc12 | 178 to 180 °C
26 | O=C(Nc1ccc(F)cc1)Nn1cnc2ccccc2c1=O | 237 to 238 °C
27 | Nc1ccc2ccc(OCc3ccc4ccccc4n3)cc2c1 | 164 to 166 °C
28 | CCCCCCCCC1N(C)c2cccc3cccc(c23)N1C | 62 to 63 °C
29 | CC1=CCC2C(=O)OC(=O)C2C1 (configuration not stated) | 58 to 63 °C
30 | CNc1cc(OC)c(C(=O)NC2CCN(Cc3ccccc3)C2)cc1Cl (configuration not stated) | 101 to 102 °C
31 | COc1ccc(C#Cc2cc(C(=O)O)nc(C(=O)O)c2)cc1 | > 300 °C
32 | CON=C(Cl)c1ccccc1S(N)(=O)=O | 155 to 158 °C
33 | O=C(O)c1ccc2c(c1)S(=O)(=O)c1ccccc1O2 | 286 °C
34 | CC1CC2C3CCC4=CC(=O)C=CC4(C)C3=CCC2(C)C1(O)C(=O)CO (configuration not stated) | 216 to 218 °C
35 | Oc1c(CN2CCCC2)cc(Nc2ccc3ccccc3n2)cc1CN1CCCC1 | 64 to 66 °C
36 | N#CC1=C(c2ccccc2)Nc2n[nH]cc2C1c1cccc2ccccc12 (configuration not stated) | 174 °C
37 | Nc1cn(-c2cccnc2)nc1C(F)(F)F | 112 to 115 °C
38 | O=C(Cc1ccc(F)cc1C(=O)O)Nc1cccc(/C=C/c2nc(C3CCC3)cs2)c1 | 211 to 212 °C
39 | COc1ccc(C(=O)Nc2cc(NC(=O)c3cccc(O)c3)ccc2C)cc1OC | 182 to 183 °C
40 | O=S(=O)(CCl)c1ccc(-n2cnnn2)cc1 | 168 to 172 °C
41 | O=c1c(C(F)(F)F)cn(C2CC(O)C(COCc3ccccc3)O2)c(=O)n1C1CCCO1 (configuration not stated) | 145 to 147 °C
42 | Cc1nc(-n2ccc(C(=O)Nc3ccccc3)cc2=O)sc1C(=O)NCc1ccccc1 | 243 to 245 °C
